Laboratory results taken from patent US8404258B2, “External preparation for the skin” (Shiseido Company, Ltd., priority 2001, dated 2013).

Test system: healthy volunteers (bent side of the forearm)
Test: 24 hour-occlusion patch test (Finn Chamber) of the original specimen
Type: in vivo, human
Settings: 46 persons, 0.03 ml original specimen
Protocol: “Test Method Using Patch Test”
The test was conducted using a Finn Chamber (8 mm in diameter) with 24 hour-occlusion.
Test subjects were 46 male and female healthy volunteers (33 males and 13 females) whose ages range from 22 to 59 (average 42); 0.03 ml of the original specimen of alkylene polyglycol dineopentanoate was applied on the bent side of the forearm of the test subjects for 24 hours. The application site was secured with an elastic bandage; three hours after the removal of the bandage and the adhesive plaster the first evaluation (after-24-hours evaluation) was conducted according to the evaluation criteria of Table 1, and 24 hours later another evaluation (after-48-hours evaluation) was conducted with the same criteria.

Row | Compound | Equivocal ± (mild erythema), number of subjects (evaluation time 24 hrs) | Negative − (no reaction), number of subjects (evaluation time 24 hrs) | Positive + (Weakly positive: erythema), number of subjects (evaluation time 24 hrs) | Positive ++ (Moderately positive: erythema + edema), number of subjects (evaluation time 24 hrs) | Positive +++ (Strongly positive), number of subjects (evaluation time 24 hrs) | Positive ++++ (Strongest positive: large blister), number of subjects (evaluation time 24 hrs) | Positive ratio (evaluation time 24 hrs) | Equivocal ± (mild erythema), number of subjects (evaluation time 48 hrs) | Negative − (no reaction), number of subjects (evaluation time 48 hrs) | Positive + (Weakly positive: erythema), number of subjects (evaluation time 48 hrs) | Positive ++ (Moderately positive: erythema + edema), number of subjects (evaluation time 48 hrs) | Positive +++ (Strongly positive), number of subjects (evaluation time 48 hrs) | Positive ++++ (Strongest positive: large blister), number of subjects (evaluation time 48 hrs) | Positive ratio (evaluation time 48 hrs)
1 | CC(COC(=O)C(C)(C)C)OCC(C)OC(=O)C(C)(C)C (stereo not shown) [Example 2, Dipropyleneglycol dineopentanoate] | 0 | 46 | 0 | 0 | 0 | 0 | 0% | 0 | 46 | 0 | 0 | 0 | 0 | 0%
2 | CC(COC(=O)C(C)(C)C)OCC(C)OCC(C)OCC(C)OC(=O)C(C)(C)C (stereo not shown) [Example 3, Tetrapropyleneglycol dineopentanoate] | 0 | 46 | 0 | 0 | 0 | 0 | 0% | 0 | 46 | 0 | 0 | 0 | 0 | 0%
3 | CC(COC(=O)C(C)(C)C)OCC(C)OCC(C)OC(=O)C(C)(C)C (stereo not shown) [Example 1, Tripropyleneglycol dineopentanoate] | 0 | 46 | 0 | 0 | 0 | 0 | 0% | 0 | 46 | 0 | 0 | 0 | 0 | 0%

More lines, now with the values ahead:

Row | Equivocal ± (mild erythema), number of subjects (evaluation time 24 hrs) | Negative − (no reaction), number of subjects (evaluation time 24 hrs) | Positive + (Weakly positive: erythema), number of subjects (evaluation time 24 hrs) | Positive ++ (Moderately positive: erythema + edema), number of subjects (evaluation time 24 hrs) | Positive +++ (Strongly positive), number of subjects (evaluation time 24 hrs) | Positive ++++ (Strongest positive: large blister), number of subjects (evaluation time 24 hrs) | Positive ratio (evaluation time 24 hrs) | Equivocal ± (mild erythema), number of subjects (evaluation time 48 hrs) | Negative − (no reaction), number of subjects (evaluation time 48 hrs) | Positive + (Weakly positive: erythema), number of subjects (evaluation time 48 hrs) | Positive ++ (Moderately positive: erythema + edema), number of subjects (evaluation time 48 hrs) | Positive +++ (Strongly positive), number of subjects (evaluation time 48 hrs) | Positive ++++ (Strongest positive: large blister), number of subjects (evaluation time 48 hrs) | Positive ratio (evaluation time 48 hrs) | Compound
4 | 5 | 31 | 5 | 4 | 1 | 0 | 22% | 5 | 32 | 4 | 5 | 0 | 0 | 20% | CCCCCCCCC(=O)OCCCCCCC(C)C [compound 3, Isononyl nonanoate, reference compound]
5 | 3 | 39 | 2 | 2 | 0 | 0 | 8.7% | 2 | 40 | 4 | 0 | 0 | 0 | 8.7% | Isocetyl oleate [compound 1, reference compound]
